In article PMC11873638 (Acta Pharmaceutica Sinica. B, 2024):

Key:
[1] = tested on: DSS-induced ulcerative colitis mice; assay: DSS-induced ulcerative colitis in mice; type: in vivo, mouse
[2] = tested on: LPS-induced ALI mice; assay: LPS-induced acute lung injury in mice; type: in vivo, mouse
[3] = tested on: Caco2, BEAS-2B, H292, and HepG2 cells; assay: Cytotoxicity assays of probe, metabolite and inhibitor; type: cell-based, human; details: all tested mammalian cells
[4] = tested on: CYP1A1 in Caco2, BEAS-2B, H292, and HepG2 cells; assay: Functional imaging of CYP1A1 in living cells; type: cell-based, human; details: 100 μmol/L, 1 h pre-incubation
[5] = target: T1, HDB-EtCl O-dechloroethylation (CYP1A1) in human liver microsomes (Homo sapiens, UniProt P04798); assay: Chemical inhibition assay of HDB-EtCl O-dechloroethylation in HLMs; details: ABT 500 μmol/L, resveratrol 100 μmol/L, others 1-10 μmol/L
T1 sequence (P04798 1-512): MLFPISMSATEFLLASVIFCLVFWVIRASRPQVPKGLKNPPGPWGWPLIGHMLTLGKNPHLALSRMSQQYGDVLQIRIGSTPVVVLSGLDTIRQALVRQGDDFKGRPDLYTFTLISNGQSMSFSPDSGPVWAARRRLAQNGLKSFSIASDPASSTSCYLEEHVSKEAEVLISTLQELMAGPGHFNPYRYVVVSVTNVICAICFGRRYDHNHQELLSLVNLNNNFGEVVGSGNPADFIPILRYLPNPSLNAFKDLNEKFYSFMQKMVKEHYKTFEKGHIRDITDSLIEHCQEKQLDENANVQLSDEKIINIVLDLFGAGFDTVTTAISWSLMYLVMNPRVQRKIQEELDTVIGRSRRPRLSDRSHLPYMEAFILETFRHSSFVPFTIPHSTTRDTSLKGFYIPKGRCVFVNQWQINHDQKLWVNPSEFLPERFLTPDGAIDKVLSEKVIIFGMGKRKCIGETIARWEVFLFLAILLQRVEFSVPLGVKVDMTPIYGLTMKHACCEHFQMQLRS

`O=C(O)c1cc(/N=N/c2ccc(S(=O)(=O)Nc3ccccn3)cc2)ccc1O` [SASP, salazosulfapyridine] was tested, and the “elevated IL-1β, TNF-α, IL-6, IFN-γ in intestinal tissues” value ([1]; ELISA, oral administration) was “effectively mitigated”, the “colon histopathological abnormities (H&E)” value ([1]; LAC-7 20 and 40 mg/kg, SASP 200 mg/kg) was “largely restored” and the “shortening of colon length by DSS” value ([1]; LAC-7 20 and 40 mg/kg, SASP 200 mg/kg, oral) was “significantly reversed”. For the same compound, the “expression of tight junction proteins Occludin and ZO-1 in intestine” value ([1]; immunofluorescence) was “significantly increased”.
In the case of `C[C@@H]1C[C@H]2[C@@H]3CCC4=CC(=O)C=C[C@]4(C)[C@@]3(F)[C@@H](O)C[C@]2(C)[C@@]1(O)C(=O)CO` [Dex, dexamethasone], the lung injury scores ([2]; LAC-7 20 and 40 mg/kg, Dex 5 mg/kg) is reported as “significantly reduce”, the “Occludin immunofluorescence intensity in lung” value ([2]; mouse, in vivo) is reported as “enhanced” and the “ZO-1 immunofluorescence intensity in lung” value ([2]; oral administration) is reported as “significantly increased”. The “total cell count in BALF” value ([2]; vs LPS-induced ALI mice) was “significantly decreased”.
`Oc1ccc(/C=C/c2cc(O)cc(O)c2)cc1` [resveratrol] was tested, and the cytotoxicity [3] was “weak cytotoxicity”, the “blocking of HDB-EtCl red-channel fluorescent signals in cells” value [4] was “completely blocked” and the “inhibition of HDB-EtCl O-dechloroethylation in HLMs” value [5] was “completely blocked”.
`Nn1nnc2ccccc21` [ABT, 1-aminobenzotriazole] was tested, and the “inhibition of HDB-EtCl O-dechloroethylation in HLMs” value [5] was “completely blocked”.
